Assay results: patent publication US20250179051A1, “PYRIMIDINLY-OXY-QUINOLINE BASED HERBICIDAL COMPOUNDS” (SYNGENTA CROP PROTECTION AG, priority 2022, published 2025)

Tests used:
Format in all cases: in vivo
Settings in all cases: 250 g/ha, evaluated after 13 days, five-point scale
[1] = tested on: Amaranthus retoflexus (AMARE); experiment: Pre-emergence herbicide glasshouse test
Method: (§1) Seeds of a variety of test species are sown in standard soil in pots Amaranthus retoflexus (AMARE), Amaranthus palmeri (AMAPA), Echinochloa crus-galli (ECHCG), Ipomoea hederacea (IPOHE), Setaria faberi (SETFA). After cultivation for one day (pre-emergence) or after 8 days cultivation (post-emergence) under controlled conditions in a glasshouse (at 24/16° C., day/night; 14 hours light; 65% humidity), the plants are sprayed with an aqueous spray solution derived from the formulation of the technical active ingredient in acetone/water (50:50) solution containing 0.5% Tween 20 (polyoxyethelyene sorbitan monolaurate, CAS RN 9005-64-5). Compounds are applied at 250 g/ha unless otherwise stated. The test plants are then grown in a glasshouse under controlled conditions in a glasshouse (at 24/16° C., day/night; 14 hours light; 65% humidity) and watered twice daily. After 13 days for pre and post-emergence, the test is evaluated for the percentage damage caused to the plant. The biological activities are shown in the following table on a five-point scale (5=81-100%; 4=61-80%; 3=41-60%; 2=21-40%; 1=0-20%).

Setaria faberi (SETFA) [2] = experiment: Pre-emergence herbicide glasshouse test
Method: as §1

[3] = tested on: Ipomoea hederacea (IPOHE); experiment: Pre-emergence herbicide glasshouse test
Method: as §1

[4] = tested on: Amaranthus palmeri (AMAPA); experiment: Pre-emergence herbicide glasshouse test
Method: as §1

[5] = tested on: Echinochloa crus-galli (ECHCG); experiment: Pre-emergence herbicide glasshouse test
Method: as §1

[6] = tested on: Amaranthus retoflexus (AMARE); experiment: Post-emergence herbicide glasshouse test
Method: as §1

Setaria faberi (SETFA) [7] = experiment: Post-emergence herbicide glasshouse test
Method: as §1

[8] = tested on: Ipomoea hederacea (IPOHE); experiment: Post-emergence herbicide glasshouse test
Method: as §1

[9] = tested on: Amaranthus palmeri (AMAPA); experiment: Post-emergence herbicide glasshouse test
Method: as §1

[10] = tested on: Echinochloa crus-galli (ECHCG); experiment: Post-emergence herbicide glasshouse test
Method: as §1

Structure (SMILES)	percentage damage caused to the plant, AMARE [1]	percentage damage caused to the plant, SETFA (Setaria faberi (SETFA) [2])	percentage damage caused to the plant, IPOHE [3]	percentage damage caused to the plant, AMAPA [4]	percentage damage caused to the plant, ECHCG [5]	percentage damage caused to the plant, AMARE [6]	percentage damage caused to the plant, SETFA (Setaria faberi (SETFA) [7])	percentage damage caused to the plant, IPOHE [8]	percentage damage caused to the plant, AMAPA [9]	percentage damage caused to the plant, ECHCG [10]
CON1CCC(CCc2nc(C(F)(F)F)nc3cccc(Oc4ncc(Cl)cn4)c23)CC1 [Compound 1.023, 5-(5-chloropyrimidin-2-yl)oxy-4-[2-(1-methoxy-4-piperidyl)ethyl]-2-(trifluoromethyl)quinazoline]	4 (4=61-80%)	1 (1=0-20%)	1 (1=0-20%)	4 (4=61-80%)	2 (2=21-40%)	4 (4=61-80%)	1 (1=0-20%)	3 (3=41-60%)	4 (4=61-80%)	1 (1=0-20%)
COCCCc1nc(C(F)(F)F)nc2cccc(Oc3ncc(Cl)cn3)c12 [Compound 1.024]	5 (5=81-100%)	4 (4=61-80%)	5 (5=81-100%)	5 (5=81-100%)	5 (5=81-100%)	4 (4=61-80%)	4 (4=61-80%)	3 (3=41-60%)	3 (3=41-60%)	5 (5=81-100%)
CO/N=C/CCc1nc(C(F)(F)F)nc2cccc(Oc3ncc(Cl)cn3)c12 [Compound 1.025, (E)-3-[5-(5-chloropyrimidin-2-yl)oxy-2-(trifluoromethyl)quinazolin-4-yl]-N-methoxy-propan-1-imine]	5 (5=81-100%)	5 (5=81-100%)	4 (4=61-80%)	5 (5=81-100%)	5 (5=81-100%)	5 (5=81-100%)	5 (5=81-100%)	4 (4=61-80%)	4 (4=61-80%)	5 (5=81-100%)
O=C(c1ccc(Br)cn1)c1nc(C(F)(F)F)nc2cccc(Oc3ncc(Cl)cn3)c12 [Compound 1.026]	4 (4=61-80%)	1 (1=0-20%)	1 (1=0-20%)	4 (4=61-80%)	1 (1=0-20%)	1 (1=0-20%)	1 (1=0-20%)	1 (1=0-20%)	2 (2=21-40%)	1 (1=0-20%)
O=C(c1ccc(F)cn1)c1nc(C(F)(F)F)nc2cccc(Oc3ncc(Cl)cn3)c12 [Compound 1.027]	2 (2=21-40%)	1 (1=0-20%)	1 (1=0-20%)	2 (2=21-40%)	1 (1=0-20%)	2 (2=21-40%)	1 (1=0-20%)	1 (1=0-20%)	1 (1=0-20%)	1 (1=0-20%)
CC(=O)c1nc(C(F)(F)F)nc2cccc(Oc3ncc(Cl)cn3)c12 [Compound 1.028, 1-[5-(5-chloropyrimidin-2-yl)oxy-2-(trifluoromethyl)quinazolin-4-yl]ethanone]	5 (5=81-100%)	3 (3=41-60%)	1 (1=0-20%)	5 (5=81-100%)	2 (2=21-40%)	4 (4=61-80%)	2 (2=21-40%)	3 (3=41-60%)	4 (4=61-80%)	1 (1=0-20%)
O=C(c1ccccn1)c1nc(C(F)(F)F)nc2cccc(Oc3ncc(Cl)cn3)c12 [Compound 1.029, [5-(5-chloropyrimidin-2-yl)oxy-2-(trifluoromethyl)quinazolin-4-yl]-(2-pyridyl) methanone]	1 (1=0-20%)	1 (1=0-20%)	1 (1=0-20%)	1 (1=0-20%)	1 (1=0-20%)	1 (1=0-20%)	1 (1=0-20%)	1 (1=0-20%)	1 (1=0-20%)	1 (1=0-20%)
O=C(c1cccnc1)c1nc(C(F)(F)F)nc2cccc(Oc3ncc(Cl)cn3)c12 [Compound 1.030]	5 (5=81-100%)	4 (4=61-80%)	1 (1=0-20%)	5 (5=81-100%)	4 (4=61-80%)	5 (5=81-100%)	2 (2=21-40%)	2 (2=21-40%)	5 (5=81-100%)	2 (2=21-40%)
FC(F)(F)c1nc(CCC2CCOC2)c2c(Oc3ncc(Cl)cn3)cccc2n1 (stereo not shown) [Compound 1.031]	5 (5=81-100%)	5 (5=81-100%)	5 (5=81-100%)	5 (5=81-100%)	5 (5=81-100%)	5 (5=81-100%)	5 (5=81-100%)	5 (5=81-100%)	4 (4=61-80%)	5 (5=81-100%)
FC(F)(F)c1nc(CCC2CC2)c2c(Oc3ncc(Cl)cn3)cccc2n1 [Compound 1.032]	5 (5=81-100%)	5 (5=81-100%)	1 (1=0-20%)	5 (5=81-100%)	5 (5=81-100%)	5 (5=81-100%)	5 (5=81-100%)	4 (4=61-80%)	4 (4=61-80%)	5 (5=81-100%)
FC(F)(F)c1nc(CCC2COC2)c2c(Oc3ncc(Cl)cn3)cccc2n1 [Compound 1.033]	4 (4=61-80%)	5 (5=81-100%)	5 (5=81-100%)	5 (5=81-100%)	5 (5=81-100%)	4 (4=61-80%)	5 (5=81-100%)	5 (5=81-100%)	2 (2=21-40%)	5 (5=81-100%)
CC(=O)N1CCC(CCc2nc(C(F)(F)F)nc3cccc(Oc4ncc(Cl)cn4)c23)CC1 [Compound 1.034]	2 (2=21-40%)	4 (4=61-80%)	1 (1=0-20%)	3 (3=41-60%)	2 (2=21-40%)	5 (5=81-100%)	5 (5=81-100%)	2 (2=21-40%)	4 (4=61-80%)	4 (4=61-80%)
FC(F)c1cc(-c2nc(C(F)(F)F)nc3cccc(Oc4ncc(Cl)cn4)c23)on1 [Compound 1.035, 5-[5-(5-chloropyrimidin-2-yl)oxy-2-(trifluoromethyl)quinazolin-4-yl]-3-(difluoromethyl)isoxazole]	5 (5=81-100%)	3 (3=41-60%)	1 (1=0-20%)	5 (5=81-100%)	2 (2=21-40%)	4 (4=61-80%)	2 (2=21-40%)	1 (1=0-20%)	4 (4=61-80%)	1 (1=0-20%)
